In patent publication US6706493B2, “DNA encoding a cholecystokinin receptor” (The United States of America as represented by the …, priority 1992, dated 2004):
Where no end group is shown, it is not given here.

Tests used:
substance P receptor = biological target: T1, substance P receptor (Rattus norvegicus, UniProt P14600); test: L-364,718 on SP response in oocytes injected with SP receptor mRNA; type: cell-based
T1 construct: expressed in transfected cells; host or cells: Xenopus oocytes injected with receptor mRNA
Text: (§1) Inhibition was specific for CCKA receptors (i.e., there was no inhibition of SP or ACh response in oocytes injected with their respective receptor mRNAs).

acetylcholine receptor = test: L-364,718 on ACh response in oocytes injected with ACh receptor mRNA; type: cell-based
Text: as §1

CCKB receptor = biological target: T2, CCKB receptor (Rattus norvegicus, UniProt P30553); conditions: COS-7 cells, rat CCKB receptor cDNA, 50 pM radioligand
T2 sequence (P30553 1-452): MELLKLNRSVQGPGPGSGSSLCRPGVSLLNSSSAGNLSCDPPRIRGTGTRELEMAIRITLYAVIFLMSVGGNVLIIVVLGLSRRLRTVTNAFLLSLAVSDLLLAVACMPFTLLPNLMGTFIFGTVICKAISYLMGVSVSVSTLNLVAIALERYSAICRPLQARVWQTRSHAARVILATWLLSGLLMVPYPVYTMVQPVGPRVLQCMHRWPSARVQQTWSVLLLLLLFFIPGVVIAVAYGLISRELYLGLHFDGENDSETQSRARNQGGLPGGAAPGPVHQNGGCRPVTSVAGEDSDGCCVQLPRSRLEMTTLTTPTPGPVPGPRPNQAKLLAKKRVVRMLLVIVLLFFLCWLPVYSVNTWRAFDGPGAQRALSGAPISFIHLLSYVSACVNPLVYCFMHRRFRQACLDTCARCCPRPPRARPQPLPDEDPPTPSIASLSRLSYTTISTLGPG
Description: Each experiment was performed in duplicate and the results given are the means from at least two separate experiments.
Two micrograms of PCDL-SRα containing either the CCKA coding region insert subcloned at an Xba 1 site in the sense orientation or the CCKB insert subcloned at an Eco R1 site in the sense orientation were transfected into a near confluent 100 mm tissue culture plate containing approximately 1×10^6 COS-7 cells using a DEAE/dextran method. Approximately 48 hours post transfection, the cells were washed twice with phosphate buffered saline (PBS), pH 7.4, 0.1% BSA at 4° C., scraped from the plate in Dulbeccols Modified Eagle's Medium (DMEM), 0.1% BSA, 4° C., centrifuged at 400×G, and resuspended at approximately 3-105 cells per ml in DMEM, 0.1% BSA, 4° C. […] Cells were subsequently washed three times with 2 ml PBS, 0.1% BSA, 4° C. by filtration on glass filters (Whatman GF/B) using a suction manifold (Millipore). Filters were assayed for gamma radioactivity (Packard, Auto-Gamma).

CCKA receptor = biological target: T3, CCKA receptor (Rattus norvegicus, UniProt P30551); test: Ligand-induced chloride current in Xenopus oocytes injected with rat CCKA receptor mRNA; type: cell-based; conditions: oocytes voltage clamped at -70 mV, 1 and 2 days after injection; FIG. 5A: 1 μM CCK-8, 1 μM gastrin-releasing peptide, 4 μM substance P
T3 construct: expressed in transfected cells; host or cells: Xenopus oocytes injected with in vitro transcribed RNA (clone nt 5 to 1506 in pcDNA-1)
T3 sequence (P30551 1-444): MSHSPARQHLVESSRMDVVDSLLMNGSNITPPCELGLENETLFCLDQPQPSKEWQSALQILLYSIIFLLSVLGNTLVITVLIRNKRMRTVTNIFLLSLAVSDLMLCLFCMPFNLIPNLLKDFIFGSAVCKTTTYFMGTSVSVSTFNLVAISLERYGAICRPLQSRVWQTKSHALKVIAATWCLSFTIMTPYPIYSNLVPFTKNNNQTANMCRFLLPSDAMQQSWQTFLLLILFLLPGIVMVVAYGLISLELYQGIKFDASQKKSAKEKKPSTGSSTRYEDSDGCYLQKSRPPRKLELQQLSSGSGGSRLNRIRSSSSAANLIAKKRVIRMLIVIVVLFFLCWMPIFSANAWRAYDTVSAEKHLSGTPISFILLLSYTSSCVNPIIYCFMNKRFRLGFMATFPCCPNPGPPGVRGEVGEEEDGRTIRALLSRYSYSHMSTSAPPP
Description: FIGS. 5A and 5B. Expression of the CCKA receptor in Xenopus oocytes. Ligand, induced chloride currents measured in the same oocytes one (A) and two (B) days after injection of mRNA (25 ng) in vitro transcribed from CCKA receptor cDNA cloned from rat pancreas. A. Response to agonists.
DNA was in vitro transcribed using T7 RNA polymerase from a CCK receptor clone template (5 to 1506, FIG. 1, SEQ NO:13) in pcDNA-1 (5 μg linearized with Apa 1) in the presence of the cap analog m^7G(5′)ppp(5′)G as recommended by the manufacturer (Promega). Xenopus oocytes were injected with 50 nl of approximately 25 ng of transcribed RNA. At 1-2 days, oocytes were voltage clamped at −70 mV, ligands were applied rapidly and directly to the constantly perfused bath and the ligand dependent Cl^− current measured.

T1 sequence (P14600 whole entry): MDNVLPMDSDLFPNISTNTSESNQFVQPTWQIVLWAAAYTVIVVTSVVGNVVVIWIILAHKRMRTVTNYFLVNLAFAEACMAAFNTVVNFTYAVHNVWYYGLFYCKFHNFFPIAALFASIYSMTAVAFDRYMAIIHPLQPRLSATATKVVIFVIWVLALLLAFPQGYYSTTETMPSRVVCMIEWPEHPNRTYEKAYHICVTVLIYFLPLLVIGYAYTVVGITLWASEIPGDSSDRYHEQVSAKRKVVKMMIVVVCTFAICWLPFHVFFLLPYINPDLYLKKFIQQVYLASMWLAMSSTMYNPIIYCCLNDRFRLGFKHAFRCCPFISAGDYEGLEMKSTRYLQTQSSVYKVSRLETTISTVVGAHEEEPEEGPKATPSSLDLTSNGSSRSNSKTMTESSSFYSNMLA

CN1C(=O)[C@@H](NC(=O)c2cc3ccccc3[nH]2)N=C(c2ccccc2)c2ccccc21 [L-364,718]
inhibition of SP response (substance P receptor): no inhibition
inhibition of ACh response (acetylcholine receptor): no inhibition

Cc1cccc(NC(=O)N[C@@H]2N=C(c3ccccc3)c3ccccc3N(C)C2=O)c1 [L-365,260]
potency at inhibiting 125I-BH-CCK-8 binding relative to L-364,718 (CCKB receptor): 10-100 fold

gastrin-releasing peptide (VPLPAGGGTVLTKMYPRGNHWAVGHLM; ends and bridges not checked; UniProt P07492 24-50, looked up)
response of oocytes to agonist (ligand dependent Cl- current) (CCKA receptor): not

substance P
response of oocytes to agonist (ligand dependent Cl- current) (CCKA receptor): not
